Ends that are not written are not given here.
Tests used:
HLA-A*0201 [1] = target: T1, HLA-A*0201 (Homo sapiens, UniProt P04439, D140Y/D185E/D98H/E176V/E277Q/G131W/G231S/I119V/I121R/I166T/I218V/L300P/L318F/N151K/N90K/P208A/P217A/Q86G/Q94H/R138H/R169H/T345S); conditions: ratio of peptide to reference peptide (HIVpol 589) concentration inducing 20% of fluorescence of 100 μM reference; T2 cells; lower RA = stronger binding; mean of at least three experiments
Protocol: (§1) The immunogenicity of these peptides was evaluated by measuring their affinity for HLA-A*0201. This is defined by two parameters: the relative affinity (RA) which reflects the ability of the peptides to bind to HLA-A*0201, and the rate of dissociation of the HLA-A*0201/peptide complexes (DC50), which reflects their stability.
Human T2 cells (Firat et al., Eur. J. Immunol., 29, 3112, 1999) (3×10^5 cells/ml), which are deficient in TAP transporters, are incubated at 37° C. for 16 hours with various concentrations (100 μM, 10 μM, 1 μM, 0.1 μM) of each test peptide, in serum-free RPMI 1640 medium supplemented with 100 ng/ml of human β2-microglobulin. Next, they are washed twice and labeled with the monoclonal antibody BB7.2 (Parham et al., Hum. Immunol., 3, 4, 277-299, 1981) which is specific for the HLA-A*0201 molecule, and then with a goat anti-mouse Ig antibody coupled to fluorescein isothiocyanate (FITC).
These cells are then analyzed by flow cytometry. […] The relative affinity (RA) is defined as the ratio of the concentration of each peptide that induces 20% of the fluorescence obtained with 100 μM of the reference peptide, to the concentration of the reference peptide that induces 20% of the fluorescence obtained with 100 μM of said reference peptide. […] The mean RA for each peptide is determined from at least three independent experiments.

HLA-A*0201 [2] = target: T1, HLA-A*0201; assay: Stability of HLA-A*0201/peptide complexes (DC50) on T2 cells; type: binding; parameters: endogenous in cells; host or cells: human T2 cells (TAP-deficient); conditions: time for loss of 50% of HLA-A*0201/peptide complexes stabilized at t=0, 100 μM peptide, 37° C.
Protocol: as §1, with “stability. The high-affinity peptides (RA<5 and DC50>2 hrs) are potentially immunogenic, unlike the low-affinity peptides (RA>5 and DC50<2 hrs).” for “stability.”
T2 cells (10^6/ml) are incubated overnight at 37° C. with 100 μM of each test peptide, in serum-free RPMI 1640 medium supplemented with 100 ng/ml of human β2-microglobulin. Next, they are washed four times in order to remove the free peptides, incubated with BREFELDIN A (Sigma; 10 μg/ml) for one hour in order to prevent the expression at their surface of newly synthesized HLA-A*0201 molecules, washed, and incubated at 37° C. for 0, 2, 4, 6 or 8 hours in the presence of BREFELDIN A (0.5 μg/ml). For each incubation time, the cells are then labeled, as indicated above, with the BB7.2 antibody and analyzed by flow cytometry in order to evaluate the amount of peptide/HLA-A*0201 complex present at their surface. This amount is evaluated by means of the formula: (mean fluorescence of the T2 cells preincubated with the peptide−mean fluorescence of the T2 cells treated under similar conditions in the absence of peptide). The DC50 (dissociation complex: DC) is defined as being the time (in hours) required for the loss of 50% of the HLA-A*0201/peptide complexes which are stabilized at t=0.

[3] = target: T2, HLA-A*0201 molecule on human T2 cells (human); assay: T2 cell HLA-A*0201 stabilisation, flow cytometry with BB7.2; peptide concentration giving 20% of reference fluorescence, relative to HIVpol 589
T2 construct: MHC class I molecule on T2 cells

Molecule	RA (relative affinity) [3]	RA (relative affinity) (HLA-A*0201 [1])	DC50 (HLA-A*0201 [2])
DMPIYMYSV [p61]		>10	
IMNDMPIYM [p58, IMNDMPIYM]		1	4 h
TLADFDPRV [p883, TLADFDPRV]			2 to 4 h
VLAGVGFFI [p550, VLAGVGFFI]		1	4 to 6 h
VLLLVLAGV [p546, VLLLVLAGV]		1.4	4 to 6 h
YMPIYMYSV [p61Y, YMPIYMYSV]		1.5	
TLADFDPRV (Synthetic 9-mer fragment of the human EphA2 antigen) [p883 peptide of EphA2]	2.2 ratio to reference peptide		

The next lines start with results.

RA (relative affinity) [3]	Molecule	RA (relative affinity) (HLA-A*0201 [1])	DC50 (HLA-A*0201 [2])
1 ratio to reference peptide	VLAGVGFFI (Synthetic 9-mer fragment of the human EphA2 antigen) [p550 peptide of EphA2]		
1.4 ratio to reference peptide	VLLLVLAGV (Synthetic 9-mer fragment of the human EphA2 antigen) [p546 peptide of EphA2]		
1.5 ratio to reference peptide	YMPIYMYSV (Variant of p61 in which the N-terminal aspartic acid is replaced by tyrosine) [p61Y variant peptide]		
1 ratio to reference peptide	IMNDMPIYM (Synthetic 9-mer fragment of the human EphA2 antigen (SYNT:EM), purity >85%) [p58 peptide of EphA2]		

From patent publication US20060034856A1, “Epha2 antigen t epitopes” (priority 2002, published 2006)
